What was measured:
Assay in all cases: KINOMEscan competition binding
[1] = tested on: ABL1 (human), P00519 [Y253F]; settings: compound 10.0 µM
ADCK3 (human) = ADCK3 (human) (UniProt Q8NI60); settings: compound 10.0 µM
AKT2 (human) = AKT2 (human) (UniProt P31751); settings: compound 10.0 µM
CAMKK1 (human) = CAMKK1 (human) (UniProt Q8N5S9); settings: compound 10.0 µM
CDC42BPB (human) = CDC42BPB (human) (UniProt Q9Y5S2); settings: compound 10.0 µM
CHEK2 (human) = CHEK2 (human) (UniProt O96017); settings: compound 10.0 µM
[2] = tested on: EGFR (human), P00533 [747-751 del / S ins]; settings: compound 10.0 µM
EPHA6 (human) = EPHA6 (human) (UniProt Q9UF33); settings: compound 10.0 µM
EPHB1 (human) = EPHB1 (human) (UniProt P54762); settings: compound 10.0 µM
EPHB3 (human) = EPHB3 (human) (UniProt P54753); settings: compound 10.0 µM
FES (human) = FES (human) (UniProt P07332); settings: compound 10.0 µM
FGFR2 (human) = FGFR2 (human) (UniProt P21802); settings: compound 10.0 µM
[3] = tested on: FGFR3 (human), P22607 [G697C]; settings: compound 10.0 µM
GSK3B (human) = GSK3B (human) (UniProt P49841); settings: compound 10.0 µM
IKBKB (human) = IKBKB (human) (UniProt O14920); settings: compound 10.0 µM
[4] = tested on: KIT (human), P10721 [A829P]; settings: compound 10.0 µM
[5] = tested on: KIT (human), P10721 [D816H]; settings: compound 10.0 µM
MAP2K1 (human) = MAP2K1 (human) (UniProt Q02750); settings: compound 10.0 µM
MAP2K2 (human) = MAP2K2 (human) (UniProt P36507); settings: compound 10.0 µM
MAP3K13 (human) = MAP3K13 (human) (UniProt O43283); settings: compound 10.0 µM
MAPK10 (human) = MAPK10 (human) (UniProt P53779)
MAPK4 (human) = MAPK4 (human) (UniProt P31152); settings: compound 10.0 µM
MERTK (human) = MERTK (human) (UniProt Q12866); settings: compound 10.0 µM
MKNK1 (human) = MKNK1 (human) (UniProt Q9BUB5); settings: compound 10.0 µM
NEK11 (human) = NEK11 (human) (UniProt Q8NG66); settings: compound 10.0 µM
NEK5 (human) = NEK5 (human) (UniProt Q6P3R8); settings: compound 10.0 µM
NTRK3 (human) = NTRK3 (human) (UniProt Q16288); settings: compound 10.0 µM
[6] = tested on: PIK3CA (human), P42336 [E545K]; settings: compound 10.0 µM
[7] = tested on: PIK3CA (human), P42336 [Q546K]; settings: compound 10.0 µM
PIP4K2B (human) = PIP4K2B (human) (UniProt P78356); settings: compound 10.0 µM
PRKACB (human) = PRKACB (human) (UniProt P22694); settings: compound 10.0 µM
PTK2B (human) = PTK2B (human) (UniProt Q14289); settings: compound 10.0 µM
ROCK2 (human) = ROCK2 (human) (UniProt O75116); settings: compound 10.0 µM
ROS1 (human) = ROS1 (human) (UniProt P08922); settings: compound 10.0 µM
RPS6KA2 KD1 (human) = RPS6KA2 KD1 (human) (UniProt Q15349); settings: compound 10.0 µM
RPS6KA3 KD1 (human) = RPS6KA3 KD1 (human) (UniProt P51812); settings: compound 10.0 µM
STK10 (human) = STK10 (human) (UniProt O94804); settings: compound 10.0 µM
STK33 (human) = STK33 (human) (UniProt Q9BYT3); settings: compound 10.0 µM
STK4 (human) = STK4 (human) (UniProt Q13043); settings: compound 10.0 µM
TBK1 (human) = TBK1 (human) (UniProt Q9UHD2); settings: compound 10.0 µM
TGFBR2 (human) = TGFBR2 (human) (UniProt P37173); settings: compound 10.0 µM
ZAP70 (human) = ZAP70 (human) (UniProt P43403); settings: compound 10.0 µM

Chain of MAPK10 (human) (P53779 whole entry, looked up): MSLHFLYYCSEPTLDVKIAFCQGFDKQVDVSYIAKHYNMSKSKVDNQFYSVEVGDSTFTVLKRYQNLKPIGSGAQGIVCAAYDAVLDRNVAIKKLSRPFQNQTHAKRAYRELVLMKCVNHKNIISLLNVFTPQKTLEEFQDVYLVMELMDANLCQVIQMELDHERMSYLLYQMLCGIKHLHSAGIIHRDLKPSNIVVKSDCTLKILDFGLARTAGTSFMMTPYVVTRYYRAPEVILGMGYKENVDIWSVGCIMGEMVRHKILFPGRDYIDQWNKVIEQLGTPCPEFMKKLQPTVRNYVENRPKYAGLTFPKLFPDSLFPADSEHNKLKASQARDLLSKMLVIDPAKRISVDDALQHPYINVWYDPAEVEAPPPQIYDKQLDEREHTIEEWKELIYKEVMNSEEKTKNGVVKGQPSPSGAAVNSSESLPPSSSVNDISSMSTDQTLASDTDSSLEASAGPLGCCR
Chain of NTRK3 (human) (Q16288 whole entry, looked up): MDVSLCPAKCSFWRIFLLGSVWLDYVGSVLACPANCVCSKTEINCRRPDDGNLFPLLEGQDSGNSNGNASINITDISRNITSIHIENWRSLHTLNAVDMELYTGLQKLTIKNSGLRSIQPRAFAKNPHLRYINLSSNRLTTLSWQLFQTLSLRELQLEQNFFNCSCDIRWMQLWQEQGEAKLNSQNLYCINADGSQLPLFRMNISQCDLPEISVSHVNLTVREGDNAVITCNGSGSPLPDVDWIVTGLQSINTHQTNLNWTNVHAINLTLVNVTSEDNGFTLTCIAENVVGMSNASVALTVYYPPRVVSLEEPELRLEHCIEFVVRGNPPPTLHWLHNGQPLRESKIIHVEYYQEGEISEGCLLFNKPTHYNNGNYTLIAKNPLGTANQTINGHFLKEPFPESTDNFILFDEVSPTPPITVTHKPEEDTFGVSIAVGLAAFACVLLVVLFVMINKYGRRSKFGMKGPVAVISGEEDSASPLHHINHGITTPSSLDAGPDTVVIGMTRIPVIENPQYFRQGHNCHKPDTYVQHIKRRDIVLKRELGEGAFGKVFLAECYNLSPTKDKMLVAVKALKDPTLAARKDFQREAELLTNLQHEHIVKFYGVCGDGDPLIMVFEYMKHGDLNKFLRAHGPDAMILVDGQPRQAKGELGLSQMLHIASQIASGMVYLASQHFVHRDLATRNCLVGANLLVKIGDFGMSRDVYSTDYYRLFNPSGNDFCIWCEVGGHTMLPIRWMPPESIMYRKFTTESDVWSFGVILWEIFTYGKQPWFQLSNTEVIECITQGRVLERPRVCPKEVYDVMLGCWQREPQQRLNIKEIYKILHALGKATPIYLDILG
Chain of PIK3CA (human), P42336 [Q546K] (P42336 whole entry Q546K, looked up): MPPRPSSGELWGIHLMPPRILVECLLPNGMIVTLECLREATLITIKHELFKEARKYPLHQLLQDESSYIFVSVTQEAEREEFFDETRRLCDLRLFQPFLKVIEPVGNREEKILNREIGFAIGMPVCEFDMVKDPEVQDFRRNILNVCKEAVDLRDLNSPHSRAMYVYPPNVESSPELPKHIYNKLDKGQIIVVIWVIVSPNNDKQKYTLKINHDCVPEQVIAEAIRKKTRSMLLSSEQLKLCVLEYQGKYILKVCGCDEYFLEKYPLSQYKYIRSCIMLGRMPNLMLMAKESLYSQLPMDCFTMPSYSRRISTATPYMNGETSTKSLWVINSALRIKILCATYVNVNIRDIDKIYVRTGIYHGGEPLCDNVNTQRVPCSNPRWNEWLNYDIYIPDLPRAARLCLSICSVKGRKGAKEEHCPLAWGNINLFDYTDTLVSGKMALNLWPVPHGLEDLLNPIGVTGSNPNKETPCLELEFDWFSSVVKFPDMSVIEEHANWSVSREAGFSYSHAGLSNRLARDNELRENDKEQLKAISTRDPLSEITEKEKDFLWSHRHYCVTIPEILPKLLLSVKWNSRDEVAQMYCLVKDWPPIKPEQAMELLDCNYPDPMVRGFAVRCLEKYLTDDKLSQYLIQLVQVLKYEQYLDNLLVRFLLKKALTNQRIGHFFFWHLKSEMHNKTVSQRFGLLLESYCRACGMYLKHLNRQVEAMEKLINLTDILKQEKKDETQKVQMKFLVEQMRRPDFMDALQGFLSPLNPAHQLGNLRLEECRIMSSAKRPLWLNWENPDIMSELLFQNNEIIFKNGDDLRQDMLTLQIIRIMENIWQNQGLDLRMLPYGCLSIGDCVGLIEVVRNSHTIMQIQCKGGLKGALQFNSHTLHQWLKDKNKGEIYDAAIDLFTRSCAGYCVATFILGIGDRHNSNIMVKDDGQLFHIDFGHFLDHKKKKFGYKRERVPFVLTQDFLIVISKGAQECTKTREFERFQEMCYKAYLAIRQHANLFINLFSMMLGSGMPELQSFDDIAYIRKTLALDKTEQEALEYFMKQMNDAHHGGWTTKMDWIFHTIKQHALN
Chain of PIP4K2B (human) (P78356 whole entry, looked up): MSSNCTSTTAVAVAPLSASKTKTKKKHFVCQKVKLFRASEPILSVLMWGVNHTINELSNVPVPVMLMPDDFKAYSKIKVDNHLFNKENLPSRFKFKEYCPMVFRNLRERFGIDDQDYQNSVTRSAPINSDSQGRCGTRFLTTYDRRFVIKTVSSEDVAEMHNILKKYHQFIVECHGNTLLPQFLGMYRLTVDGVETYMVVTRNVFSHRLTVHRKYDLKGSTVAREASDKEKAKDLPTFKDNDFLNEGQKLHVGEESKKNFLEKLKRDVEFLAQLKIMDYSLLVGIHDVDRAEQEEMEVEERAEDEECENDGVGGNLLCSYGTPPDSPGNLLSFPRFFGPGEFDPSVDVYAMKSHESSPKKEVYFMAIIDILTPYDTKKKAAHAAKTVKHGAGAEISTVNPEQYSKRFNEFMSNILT
Chain of TGFBR2 (human) (P37173 whole entry, looked up): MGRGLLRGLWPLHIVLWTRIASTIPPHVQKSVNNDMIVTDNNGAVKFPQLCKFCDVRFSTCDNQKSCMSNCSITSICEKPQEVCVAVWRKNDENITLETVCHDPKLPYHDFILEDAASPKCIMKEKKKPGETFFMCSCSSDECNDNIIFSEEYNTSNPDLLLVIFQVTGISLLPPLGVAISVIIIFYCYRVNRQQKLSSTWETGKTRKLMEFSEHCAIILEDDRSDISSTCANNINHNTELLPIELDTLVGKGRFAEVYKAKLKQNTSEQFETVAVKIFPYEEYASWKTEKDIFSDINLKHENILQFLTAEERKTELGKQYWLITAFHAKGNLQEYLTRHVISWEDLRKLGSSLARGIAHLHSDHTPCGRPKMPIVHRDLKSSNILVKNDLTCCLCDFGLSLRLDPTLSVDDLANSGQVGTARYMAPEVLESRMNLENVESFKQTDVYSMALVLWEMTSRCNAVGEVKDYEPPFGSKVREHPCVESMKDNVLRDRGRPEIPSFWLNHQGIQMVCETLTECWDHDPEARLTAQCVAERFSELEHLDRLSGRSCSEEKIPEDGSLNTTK
Chain of KIT (human), P10721 [D816H] (P10721 whole entry D816H, looked up): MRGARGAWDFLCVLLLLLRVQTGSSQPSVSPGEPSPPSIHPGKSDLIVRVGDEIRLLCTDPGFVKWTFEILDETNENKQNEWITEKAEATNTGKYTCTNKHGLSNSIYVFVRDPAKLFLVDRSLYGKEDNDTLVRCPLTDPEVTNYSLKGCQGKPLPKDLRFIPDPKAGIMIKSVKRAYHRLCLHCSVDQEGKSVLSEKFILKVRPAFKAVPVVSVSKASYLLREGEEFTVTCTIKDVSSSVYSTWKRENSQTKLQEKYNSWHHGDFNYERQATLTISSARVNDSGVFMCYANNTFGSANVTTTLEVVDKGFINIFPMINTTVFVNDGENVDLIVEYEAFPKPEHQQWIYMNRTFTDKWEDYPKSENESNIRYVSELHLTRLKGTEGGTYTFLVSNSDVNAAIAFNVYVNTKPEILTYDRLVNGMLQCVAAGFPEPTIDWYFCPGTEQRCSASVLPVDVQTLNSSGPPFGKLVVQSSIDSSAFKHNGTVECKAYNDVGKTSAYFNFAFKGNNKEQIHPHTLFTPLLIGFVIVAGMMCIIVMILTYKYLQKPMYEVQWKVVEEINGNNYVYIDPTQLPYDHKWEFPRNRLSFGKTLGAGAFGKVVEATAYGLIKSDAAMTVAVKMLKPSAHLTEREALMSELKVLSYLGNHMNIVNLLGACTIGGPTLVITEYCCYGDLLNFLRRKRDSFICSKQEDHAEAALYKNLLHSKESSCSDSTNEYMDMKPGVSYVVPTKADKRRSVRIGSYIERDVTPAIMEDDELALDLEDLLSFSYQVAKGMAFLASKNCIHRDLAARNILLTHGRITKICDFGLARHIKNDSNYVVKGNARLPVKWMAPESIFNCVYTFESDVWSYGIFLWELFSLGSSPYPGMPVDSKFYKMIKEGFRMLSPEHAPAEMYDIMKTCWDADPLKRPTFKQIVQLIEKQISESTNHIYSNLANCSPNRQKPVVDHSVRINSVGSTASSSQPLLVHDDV
Chain of PIK3CA (human), P42336 [E545K] (P42336 whole entry E545K, looked up): as the sequence (P42336 whole entry Q546K, looked up) above, with E545K, K546Q counted along it
Chain of MAP2K1 (human) (Q02750 whole entry, looked up): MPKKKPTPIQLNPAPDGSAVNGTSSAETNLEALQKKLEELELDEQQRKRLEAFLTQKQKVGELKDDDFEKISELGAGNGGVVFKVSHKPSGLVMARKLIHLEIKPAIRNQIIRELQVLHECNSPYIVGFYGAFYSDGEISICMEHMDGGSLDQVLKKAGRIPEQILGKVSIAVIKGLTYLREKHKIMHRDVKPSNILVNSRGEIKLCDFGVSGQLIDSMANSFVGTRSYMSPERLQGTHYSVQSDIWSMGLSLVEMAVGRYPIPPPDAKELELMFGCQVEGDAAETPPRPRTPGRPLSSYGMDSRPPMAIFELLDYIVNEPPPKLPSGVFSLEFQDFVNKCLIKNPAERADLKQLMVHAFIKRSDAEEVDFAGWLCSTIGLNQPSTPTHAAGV
Chain of KIT (human), P10721 [A829P] (P10721 whole entry A829P, looked up): as the sequence (P10721 whole entry D816H, looked up) above, with H816D, A829P counted along it

## Cc1ccc(NC(=O)c2ccc(NC(=O)/C=C/CN(C)C)cc2)cc1Nc1nccc(-c2cccnc2)n1
[1]
  kinase still bound, per cent of control: 39%
ADCK3 (human)
  kinase still bound, per cent of control: 76%
AKT2 (human)
  kinase still bound, per cent of control: 100%
CAMKK1 (human)
  kinase still bound, per cent of control: 99%
CDC42BPB (human)
  kinase still bound, per cent of control: 78%
CHEK2 (human)
  kinase still bound, per cent of control: 94%
[2]
  kinase still bound, per cent of control: 50%
EPHA6 (human)
  kinase still bound, per cent of control: 100%
EPHB1 (human)
  kinase still bound, per cent of control: 100%
EPHB3 (human)
  kinase still bound, per cent of control: 100%
FES (human)
  kinase still bound, per cent of control: 100%
FGFR2 (human)
  kinase still bound, per cent of control: 100%
[3]
  kinase still bound, per cent of control: 97%
GSK3B (human)
  kinase still bound, per cent of control: 87%
IKBKB (human)
  kinase still bound, per cent of control: 70%
[4]
  kinase still bound, per cent of control: 17%
[5]
  kinase still bound, per cent of control: 29%
MAP2K1 (human)
  kinase still bound, per cent of control: 95%
MAP2K2 (human)
  kinase still bound, per cent of control: 74%
MAP3K13 (human)
  kinase still bound, per cent of control: 89%
MAPK10 (human)
  Kd: 100 nM
MAPK10 (human); compound 10.0 µM
  kinase still bound, per cent of control: 0.25%
MAPK4 (human)
  kinase still bound, per cent of control: 100%
MERTK (human)
  kinase still bound, per cent of control: 81%
MKNK1 (human)
  kinase still bound, per cent of control: 88%
NEK11 (human)
  kinase still bound, per cent of control: 78%
NEK5 (human)
  kinase still bound, per cent of control: 51%
NTRK3 (human)
  kinase still bound, per cent of control: 82%
[6]
  kinase still bound, per cent of control: 96%
[7]
  kinase still bound, per cent of control: 94%
PIP4K2B (human)
  kinase still bound, per cent of control: 69%
PRKACB (human)
  kinase still bound, per cent of control: 100%
PTK2B (human)
  kinase still bound, per cent of control: 100%
ROCK2 (human)
  kinase still bound, per cent of control: 61%
ROS1 (human)
  kinase still bound, per cent of control: 100%
RPS6KA2 KD1 (human)
  kinase still bound, per cent of control: 76%
RPS6KA3 KD1 (human)
  kinase still bound, per cent of control: 52%
STK10 (human)
  kinase still bound, per cent of control: 89%
STK33 (human)
  kinase still bound, per cent of control: 97%
STK4 (human)
  kinase still bound, per cent of control: 100%
TBK1 (human)
  kinase still bound, per cent of control: 64%
TGFBR2 (human)
  kinase still bound, per cent of control: 100%
ZAP70 (human)
  kinase still bound, per cent of control: 56%
